From ChEMBL document CHEMBL3763101, “Gibbilimbol analogues as antiparasitic agents--Synthesis and biological activity against Trypanosoma cruzi and Leishmania (L.) infantum” (Bioorg Med Chem Lett, 2016)

How the values were obtained:
[1] = Selectivity index, ratio of CC50 for mouse […] cells to IC50 for Trypanosoma cruzi Y trypomastigotes; format: functional
[2] = Selectivity index, ratio of CC50 for mouse […] cells to IC50 for Leishmania infantum promastigotes; format: functional, NCTC-929
Leishmania infantum [3] = assay: Antiparasitic activity against promastigote stage of Leishmania infantum assessed as parasite viability after 24 hrs by MTT assay; format: functional, organism-based
Trypanosoma cruzi [4] = assay: Antiparasitic activity against amastigote stage of Trypanosoma cruzi Y; format: functional, organism-based
[5] = Cytotoxicity against mouse NCTC-929 cells assessed as cell viability after 48 hrs by MTT assay; format: cell-based
Leishmania infantum [6] = assay: Antiparasitic activity against amastigote stage of Leishmania infantum infected in BALB/c mouse peritoneal macrophages assessed as reduction of parasite burden after 120 hrs by Giemsa staining-based light microscopic analysis; format: functional, organism-based
Trypanosoma cruzi [7] = assay: Antiparasitic activity against trypomastigote stage of Trypanosoma cruzi Y assessed as parasite viability after 24 hrs by MTT assay; format: functional, organism-based
[8] = Selectivity index, ratio of CC50 for mouse […] cells to IC50 for Trypanosoma cruzi Y amastigotes; format: functional
[9] = Selectivity index, ratio of CC50 for mouse […] cells to IC50 for Leishmania infantum amastigotes; format: functional
Leishmania infantum [10] = assay: Potency index, ratio of gibbilimbol B IC50 to compound IC50 for amastigote stage of Leishmania infantum infected in BALB/c mouse peritoneal macrophages; format: functional
[11] = Leishmania infantum, 24 h, read-out: IC50
[12] = Trypanosoma cruzi, Y, 24 h, read-out: IC50
[13] = Trypanosoma cruzi, Y, read-out: IC50
[14] = Leishmania infantum, 120 h, read-out: IC50

IC50 (Trypanosoma cruzi [4])	IC50 (Leishmania infantum [6])	IC50 (Trypanosoma cruzi [7]; [12]) [µM]	IC50 (Trypanosoma cruzi [7])	IC50 (Trypanosoma cruzi [4]; [13]) [µM]	IC50 (Leishmania infantum [6]; [14]) [µM]	Compound	Ratio CC50/IC50 [1]	Ratio CC50/IC50 [2]	IC50 (Leishmania infantum [3]; [11]) [µM]	CC50 at 48 h [5] [µM]	Ratio CC50/IC50 [8]	Ratio CC50/IC50 [9]	Ratio IC50 (Leishmania infantum [10])	IC50 (Leishmania infantum [3])
Not Active	Not Active	4.5	–	–	–	CCCCCCCCOC(=O)c1ccc(O)cc1	29	1.1	123	130	–	–	–	–
Not Active	Not Active	–	Not Active	–	–	CCCCCCCC/N=C/c1ccc(O)cc1	–	5	19.9	99.2	–	–	–	–
Not Active	Not Active	6.1	–	–	–	CCCCCCCC(O)/C=C/c1ccc(O)cc1 (centres undefined)	8.1	0.4	125	49.5	–	–	–	–
Not Active	Not Active	26.5	–	–	–	CCCCCCCCNC(=O)c1ccc(O)cc1	1.7	1	45.1	45.4	–	–	–	–
–	Not Active	11.8	–	22.5	–	CCCCCCCC(=O)/C=C/c1ccc(O)cc1	7	1	82.7	82.8	3.7	–	–	–
–	–	17	–	5.5	1.8	CCCCCCCCNCc1ccc(O)cc1	1.4	0.8	28.6	23.5	4.3	13.1	52	–
Not Active	Not Active	–	Not Active	–	–	CCCCNCc1ccc(O)cc1	–	>9.5	31.6	> 300	–	–	–	–
–	–	–	–	230	–	O=C(Cn1ccnc1[N+](=O)[O-])NCc1ccccc1 [BENZNIDAZOLE]	–	–	–	270	–	–	–	–
–	Not Active	–	Not Active	26.4	–	CCCCOC(=O)c1ccc(O)cc1 [BUTYLPARABEN]	–	–	–	168	6.4	–	–	Not Active
–	–	–	–	–	16.4	CCCCCCCCCCCCCCCCOP(=O)([O-])OCC[N+](C)(C)C [MILTEFOSINE]	–	14.5	16.7	241	–	14.7	–	–
